# Experiments:
# 5-HTP response = 5-HTP response potentiation test; assay type: in vivo, mice; conditions: for minimal effective dose: Mus musculus, ip, test drug one hour (or 4, 24 hours) before dl-5-HTP 90 mg/kg i.v., mice, read-out: Potentiation of 5-HTP, effective dose (least dose producing maximal score +3 in all animals)
# Source text: 1. 5-HTP response potentiation test
# Inhibition of the uptake of 5-HT potentiates the effects of administered 5-hydroxytryptophan (5-HTP) probably by increasing the amount of 5-HT at the receptor. […] The strength of the syndrome is scored from 0 to +3.
# man = conditions: cited from earlier work
# [1] = test system: noradrenaline (NA) re-uptake mechanism; conditions: central nervous system; cited from earlier work
# [2] = test system: NA uptake (noradrenaline); test: Inhibition of the uptake of tritiated noradrenaline (drug given i.p. in vivo, uptake in midbrain slices); set-up: species or system mice; conditions: ip, 0.5 h, half an hour before killing, mouse midbrain slices, noradrenaline 1×10^-7 M, 5 min incubation, read-out: Inhibition (50%) of uptake in vivo, NA (ED50)
# Experimental: (§1) 1. Inhibition of the uptake of carbon-14 5-HT and tritiated noradrenaline in vitro and in vivo
# (§2) The drugs were administered intraperitoneally half an hour before the animals were killed and the midbrain was taken out and sliced and incubated in a mixture consisting of, per 100 mg of brain slices, 0.2 n-mole of ^14 C--5--HT, 0.2 n-mole of ^3 H--NA and 11 μmole of glucose in 2 ml of Krebs-Henseleit buffer, pH 7.4. The incubation time was 5 minutes. The radioactive amines taken up in the slices were dissolved in Soluene-350®(Packard) and the amounts were determined with the double labelling technique by liquid scintillation. The dose producing 50 percent decrease of the active uptake (ED50) was determined graphically from dose response curves. Active uptake is defined as that part of the radioactive uptake which is inhibited by a high concentration of cocaine. All doses were given at least to four animals.
# male rats = test: Drug induced arrhythmias in rats; assay type: in vivo; conditions: male rats anesthetized with Nembutal, stepwise increased doses
# Source text: DRUG INDUCED ARRHYTHMIAS IN RATS
# Test drugs were intravenously administered to male rats anesthetized with Nembutal®. The doses were increased stepwise up to the lethal dose and the first dose which induced arrhythmia was noted.
# [3] = test system: 5-hydroxytryptamine (5-HT) re-uptake mechanism; conditions: central nervous system; cited from earlier work
# [4] = test system: 5-HT uptake (5-hydroxytryptamine); test: Inhibition of the uptake of 14C-5-HT (drug given i.p. in vivo, uptake in midbrain slices); set-up: species or system mice; conditions: ip, 0.5 h, half an hour before killing, mouse midbrain slices, 5-HT 1×10^-7 M, 5 min incubation, read-out: Inhibition (50%) of uptake in vivo, 5-HT (ED50)
# Experimental: as §1
# as §2, with “The method is described by Ross, Renyi and Ogren in European Journal of Pharmacology 17 (1972), 107-112. […] The drugs” for “The drugs”
# in vivo = conditions: mouse, iv, mice, killing 50% within 7 days, read-out: Acute toxicity LD50
# Experimental: ACUTE TOXICITY, BEHAVIOUR AND ANTICHOLINERGIC STUDY IN MICE
# The compounds were given by intravenous route to 6 mice. LD50 is the dose which kills 50% of the animals within 7 days. Seizures, gait, sedation and gripstrength were recorded.
SMILES,minimal effective dose (5-HTP response) [mg/kg],"potentiation of dl-5-HTP by the reference drug (in words) (5-HTP response; control groups, reference)",anticholinergic effect and symptoms (in words) (man),mood and psychomotor effect (in words) (man),onset of the antidepressive effect (man; treatment with imipramine),inhibition of the re-uptake mechanism of noradrenaline (in words) [1],ED50 [2] [mg/kg],"Arrhythmia, accumulated i.v. dose where there are signs of arrhythmia (male rats) [mg/kg]",inhibition of the re-uptake mechanism of 5-hydroxytryptamine (in words) [3],ED50 [4] [mg/kg],LD50 at 168 h (in vivo) [mg/kg]
CN(C)CCCN1c2ccccc2CCc2ccccc21 [Imipramine],15,constantly potentiated dl-5-HTP,"anticholinergic and causes anticholinergic symptoms such as dryness of the mouth, tremor, tachycardia and sweating",both mood elevating and psychomotor activating,about 3 weeks,inhibits the re-uptake mechanism of noradrenaline (NA),6,8,inhibits the re-uptake mechanism of noradrenaline (NA) and 5-hydroxytryptamine (5-HT),24,–
CC(N)C(=O)OC(C)(C)Cc1ccc(F)cc1 (centres unmarked) [GEA 822],–,–,–,–,–,–,> 40,–,–,30,–
CC(N)C(=O)OC(C)(C)Cc1ccc(Cl)c(Cl)c1 (centres unmarked) [GEA 699],7,–,–,–,–,–,> 40,–,–,15,–
CC(N)C(=O)OC(C)(C)Cc1ccccc1 (centres unmarked) [GEA 916],8,–,–,–,–,–,> 40,–,–,15,–
"CC(N)C(=O)OC(C)(C)Cc1ccc(Cl)cc1.Cl (centres unmarked) [GEA 654, 2-aminopropanoic acid 1-(4-chlorophenyl)-2-methyl-2-propylester hydrochloride]",1,–,–,–,–,–,> 40,63,–,15,70
CC(N)C(=O)OC(C)(C)Cc1cccc(Cl)c1 (centres unmarked) [GEA 935],3,–,–,–,–,–,> 40,–,–,5,–
Cc1ccc(CC(C)(C)OC(=O)C(C)N)cc1 (centres unmarked) [GEA 937],12,–,–,–,–,–,> 40,–,–,10,–
CC(N)C(=O)OC(C)(C)Cc1ccc(Br)cc1 (centres unmarked) [GEA 917],5,–,–,–,–,–,> 40,–,–,25,–

# From patent US4237311A, “2-Methyl-1-(substituted)phenyl-2-propyl esters of 2-aminopropanoic acid” (priority 1974, dated 1980)
